Data reported in US8110570B2, “Modulators of acetyl-coenzyme A carboxylase and methods of use thereof” (Cropsolution, Inc., priority 2008, dated 2012).

Tests used:
[1] = test system: beta-hydroxybutyrate levels; experiment: In vivo elevation of rat serum beta-hydroxybutyrate levels; conditions: orally at 30 mg/Kg
Excerpt: Determination of blood levels of ketone bodies after oral dosing of ACC inhibitors. Compounds of this invention, and salts thereof, can be evaluated for their potential as treatments for diseases caused by reduced neuronal metabolism by assessing their effects on plasma levels of beta-hydroxybutyrate. Inhibition of ACC leads to increased rates of fatty acid oxidation and therefore production of beta-hydroxybutyrate. Rats (Sprague Rats (Sprague Dawley, Charles River Laboratories, Boston, Mass.) are acclimated for at least 4 days prior to dosing. For example, animals given food and water ad libitum are treated at volume of 1.0 mL/200 g of body weight with either an aqueous solution containing 0.5% methyl cellulose (vehicle) or an aqueous solution containing 0.5% methyl cellulose containing test compound. At various times after compound administration whole blood is collected from a jugular vein catheter into lithium heparin coated tubes, mixed gently, kept on ice and centrifuged (2500×g, 15 minutes at 4° C.) within 1 hour of collection. The isolated plasma is kept frozen at −20° C. until further processing. Plasma levels of beta-hydroxybutyrate are determined using a beta-hydroxybutyrate detection kit following the manufacturer's directions (StanBio Laboratory, Boerne, Tex.). Compounds of the present invention, and salts thereof, were assessed for their ability to increase serum beta-hydroxybutyrate levels as described above.

[2] = test system: hepatic fatty acid synthesis; experiment: In vivo inhibition of rat hepatic fatty acid synthesis; conditions: oral
Procedure: In vivo measurement of fatty acid synthesis inhibition in mammals. Incorporation of [2-^14C]acetate into saponifiable lipids in the livers of mammals (e.g. Sprague Dawley rats, Charles River Laboratories, Boston, Mass. or Harlan Laboratories, Indianapolis, Ind.) can be measured as described previously (Harwood Jr. H. J. et al., J Biol Chem, 39: 37099-37111 (2003)). For example, animals given food and water ad libitum are treated orally at volume of 1.0 ml/200 g of body weight with either an aqueous solution containing 0.5% methyl cellulose (vehicle) or an aqueous solution containing 0.5% methyl cellulose containing test compound. One hour after compound administration, animals receive an intraperitoneal injection of [2-^14C]acetate (0.02 mL, 1 mCi/mL; 50 mCi/mmol. One hour after radiolabel administration, animals are sacrificed by CO2 asphyxiation, and two liver pieces (about 0.75 g each) are removed and saponified at 70° C. for 120 min in 2.5 M NaOH (1.5 mL). After saponification, absolute EtOH (2.5 mL) is added to each sample and the solutions are mixed and allowed to stand overnight. Petroleum ether (4.8 mL) is then added to each sample, and after vigorous shaking (2 min) the mixtures are centrifuged at 1000×g (5 min). The petroleum ether layer containing the nonsaponifiable lipids is removed and discarded. The remaining aqueous layer is acidified (pH<2) by addition of 12 M HCl (0.6 mL) and extracted two times with petroleum ether (4.8 mL). The pooled organic fractions are transferred to liquid scintillation vials, dried under nitrogen, dissolved in Aquasol scintillation fluid (7 ml), and radioactivity is quantified by liquid scintillation counting. Inhibition of fatty acid synthesis by the test compound is expressed as a relative percent inhibition of measured incorporation of [2-^14C]acetate into saponifiable lipids during the interval between [2-^14C]acetate injection and CO2 asphyxiation in animals receiving test compound, compared to control animals receiving only the vehicle.
Compounds of the present invention, and salts thereof, were evaluated for inhibition of fatty acid synthesis as described above.

[3] = target: uACC (Ustilago maydis ACC) (Ustilago maydis, UniProt A0A0D1DYD5); experiment: [14C]bicarbonate incorporation assay, overall ACC activity; type: biochemical
Sequence of uACC (Ustilago maydis ACC) (A0A0D1DYD5 entry or part of it): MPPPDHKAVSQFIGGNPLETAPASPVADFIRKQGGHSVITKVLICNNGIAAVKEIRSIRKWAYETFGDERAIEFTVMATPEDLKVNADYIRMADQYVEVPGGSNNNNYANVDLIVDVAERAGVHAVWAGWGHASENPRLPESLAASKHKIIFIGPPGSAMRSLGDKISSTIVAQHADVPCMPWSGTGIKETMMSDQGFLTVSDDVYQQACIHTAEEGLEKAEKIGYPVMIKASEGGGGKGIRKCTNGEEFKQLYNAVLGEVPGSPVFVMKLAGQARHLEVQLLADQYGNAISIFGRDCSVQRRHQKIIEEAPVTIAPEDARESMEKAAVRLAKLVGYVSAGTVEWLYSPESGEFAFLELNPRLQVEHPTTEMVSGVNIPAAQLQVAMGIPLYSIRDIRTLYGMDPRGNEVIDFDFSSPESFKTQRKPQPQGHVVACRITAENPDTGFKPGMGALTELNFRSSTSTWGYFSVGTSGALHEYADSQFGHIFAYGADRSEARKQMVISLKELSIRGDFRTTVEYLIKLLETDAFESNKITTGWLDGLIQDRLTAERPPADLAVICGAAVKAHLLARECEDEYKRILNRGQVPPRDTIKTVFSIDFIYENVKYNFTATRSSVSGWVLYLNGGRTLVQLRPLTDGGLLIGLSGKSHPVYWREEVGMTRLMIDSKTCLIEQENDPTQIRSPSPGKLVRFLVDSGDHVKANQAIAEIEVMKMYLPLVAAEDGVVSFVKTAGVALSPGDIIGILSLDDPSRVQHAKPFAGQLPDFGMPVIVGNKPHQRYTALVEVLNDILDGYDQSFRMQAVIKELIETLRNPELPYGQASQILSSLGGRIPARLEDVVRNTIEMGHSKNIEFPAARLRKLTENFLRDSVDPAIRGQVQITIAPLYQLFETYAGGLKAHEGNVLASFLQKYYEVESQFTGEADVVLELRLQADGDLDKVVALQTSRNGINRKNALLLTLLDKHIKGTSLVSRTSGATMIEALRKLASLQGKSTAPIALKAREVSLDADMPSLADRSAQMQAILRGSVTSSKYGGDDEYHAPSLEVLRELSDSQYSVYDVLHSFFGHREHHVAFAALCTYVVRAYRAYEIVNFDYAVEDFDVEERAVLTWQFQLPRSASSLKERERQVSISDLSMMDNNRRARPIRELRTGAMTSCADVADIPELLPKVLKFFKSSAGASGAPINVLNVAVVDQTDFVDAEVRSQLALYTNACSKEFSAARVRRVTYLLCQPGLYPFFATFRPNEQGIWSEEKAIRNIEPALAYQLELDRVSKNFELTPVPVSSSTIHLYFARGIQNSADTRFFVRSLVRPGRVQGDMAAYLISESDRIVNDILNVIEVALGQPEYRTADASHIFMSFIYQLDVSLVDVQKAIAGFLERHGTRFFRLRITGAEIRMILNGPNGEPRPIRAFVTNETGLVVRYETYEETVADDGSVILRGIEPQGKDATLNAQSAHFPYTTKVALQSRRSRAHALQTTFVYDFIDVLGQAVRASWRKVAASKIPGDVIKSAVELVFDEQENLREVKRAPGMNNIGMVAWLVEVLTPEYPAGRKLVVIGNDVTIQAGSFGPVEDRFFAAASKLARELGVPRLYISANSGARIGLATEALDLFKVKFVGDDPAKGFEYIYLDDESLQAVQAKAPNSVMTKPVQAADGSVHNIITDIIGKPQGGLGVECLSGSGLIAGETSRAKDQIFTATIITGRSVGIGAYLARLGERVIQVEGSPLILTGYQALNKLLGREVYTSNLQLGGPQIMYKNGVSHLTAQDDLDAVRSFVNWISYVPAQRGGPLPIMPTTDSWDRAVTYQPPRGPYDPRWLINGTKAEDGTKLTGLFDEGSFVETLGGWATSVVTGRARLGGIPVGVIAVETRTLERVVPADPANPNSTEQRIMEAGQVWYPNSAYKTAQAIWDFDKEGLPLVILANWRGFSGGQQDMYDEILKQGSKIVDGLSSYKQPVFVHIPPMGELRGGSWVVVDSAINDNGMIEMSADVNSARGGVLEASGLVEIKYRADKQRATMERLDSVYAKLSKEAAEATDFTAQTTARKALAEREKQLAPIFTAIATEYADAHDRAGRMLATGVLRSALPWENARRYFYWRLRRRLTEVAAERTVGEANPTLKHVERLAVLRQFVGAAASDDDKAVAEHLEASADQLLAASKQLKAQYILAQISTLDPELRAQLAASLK

hACC1-CT = target: T1, hACC1-CT (Homo sapiens, UniProt Q13085); experiment: acetyl-CoA/malonyl-CoA isotope exchange assay, CT half-reaction; type: biochemical
T1 construct: PCR primers were designed for full-length hACC1 and hACC2 using GenBank submissions AY237919 and AJ575592, respectively; His tag (C); made in house; host or cells: baculovirus, Sf9 insect cells
Procedure: Overall ACC activity is comprised of two half-reactions, the BC reaction (the ATP-dependent carboxylation of biotin) and the CT reaction (the transfer of the carboxyl group from biotin to acetyl-CoA to form malonyl-CoA). Thus, it is of interest to localize the site of action of ACC inhibitors. To this end, representative compounds are tested in an acetyl-CoA/malonyl-CoA isotope exchange reaction which specifically measures the CT-half reaction. This assay is performed with slight modifications of published procedures (Gregolin et al., J Biol Chem, 1968, 243:4227-4235; Rendina et al., J Agric Food Chem, 1990, 38:1282-1287). Briefly, the reaction mixture (50 μL) contained 50 mM Hepes (pH 7.4), 20 mM K-citrate, 1.5 mM MgSO4, 4 mM malonyl-CoA, 1.67 mM acetyl-CoA, 0.34 mM [^14C]acetyl-CoA (about 60 mCi/mmol), 0.75 mg/mL BSA, and 1% (v/v) DMSO with or without inhibitor. Reactions are initiated by the addition of hACCl (0.3 μg) or hACC2 (0.15 μg) enzyme and incubated at 37° C. for 10 min. Reactions are stopped by addition of a 0.2M sodium arsenate solution containing 1U of phosphotransacetylase (13.5 μL) and incubation at room temperature for 30 min. […] The samples are then resuspended in water (200 μL), added to scintillation cocktail (3 mL), and counted in a scintillation counter to quantify radiolabel incorporated into malonyl-CoA. […]

For `COc1cc(C(=O)N2CCC3(CC2)NC(=O)c2cc(OC(C)C)ccc2O3)nc2c(OC)cccc12` [Compound 169], the “Average beta-Hydroxybutyrate Concentration” value ([1]; 15 min) was 0.149 mM, the “Average beta-Hydroxybutyrate Concentration” value ([1]; 30 min) was 0.201 mM and the “Average beta-Hydroxybutyrate Concentration” value ([1]; 60 min) was 0.135 mM. The “Average beta-Hydroxybutyrate Concentration” value ([1]; 120 min) was 0.126 mM, the “Average beta-Hydroxybutyrate Concentration” value ([1]; 240 min) was 0.118 mM and the “Percent Inhibition at 10 mg/Kg” value [2] was 30%. For the same compound, the “Percent Inhibition at 30 mg/Kg” value [2] was 60%.
With `COc1ccc2c(c1)C(=O)NC1(CCN(C(=O)c3cc(OC)c4cccc(OC)c4n3)CC1)O2` [Compound 150] the “Average beta-Hydroxybutyrate Concentration” value ([1]; 15 min) was 0.160 mM, the “Average beta-Hydroxybutyrate Concentration” value ([1]; 30 min) was 0.214 mM and the “Average beta-Hydroxybutyrate Concentration” value ([1]; 60 min) was 0.147 mM. The “Average beta-Hydroxybutyrate Concentration” value ([1]; 120 min) was 0.140 mM, the “Average beta-Hydroxybutyrate Concentration” value ([1]; 240 min) was 0.102 mM and the “Percent Inhibition at 10 mg/Kg” value [2] was 20%. For the same compound, the “Percent Inhibition at 30 mg/Kg” value [2] was 54%.
Work on `COc1cc(C(=O)N2CCC3(CC2)NC(=O)c2cc(Br)ccc2O3)nc2c(OC)cccc12` [Compound 2, 6-Bromo-1′-[(4,8-dimethoxyquinoline-2-yl)carbonyl]spiro[2H-1,3-benzoxazine-2,4′-piperidine]-4(3H)-one] yielded an IC50 [3] of 11 µM and an IC50 (hACC1-CT) of 100 nM.
